Patent US20210177828A1, “TAM FAMILY KINASE /AND CSF1R KINASE INHIBITOR AND USE THEREOF” (Nanjing Transthera Biosciences Co., Ltd., priority 2018, published 2021)
pIC50: −log10 of the molar value. Read-outs that look alike come from different tables or passages of the source.

Assays:
[1] = PK assay in rat (IV and PO); assay type: in vivo; conditions: plasma, SD rats; for bioavailability: read-out: F % (absolute bioavailability); for clearance: read-out: Cl_obs iv (clearance rate) (converted); for Vd: read-out: Vz_obs iv (apparent volume of distribution); for Tmax: read-out: Tmax po (time of maximum observed plasma concentration)
Protocol: The experimental compounds were each dissolved in a mixture of 5% DMSO+20% (30% solutol)+75% saline to prepare compound solutions. The compound solutions were intragastrically administered to SD rats at a dosage of 5.0 mg/kg. The blood was sampled at time points of 15 min, 30 min, 1 hr, 2 hrs, 4 hrs, 6 hrs, 8 hrs and 24 hrs after administration.
The experimental compounds were each dissolved in a mixture of 5% DMSO+20% (30% solutol)+75% saline to prepare compound solutions. The compound solutions were intravenously administered to SD rats at a dosage of 1 mg/kg. The blood was sampled at time points of 5 min, 15 min, 30 min, 1 hr, 2 hrs, 4 hrs, 6 hrs, 8 hrs and 24 hrs after administration.
The animals were fixed, and the tails were heated under a water bath 10 min before each sampling time. About 100 μL of blood was collected via the tail vein, and the collected blood was placed in an anticoagulant tube containing EDTA-K2. The blood samples were centrifuged at 8,000 rpm for 6 min at 4° C. to obtain plasma samples, and the plasma samples were prepared within 30 min after the blood collection. The plasma samples were stored in a refrigerator at −80° C. before test.
The sample to be tested was taken out from the −80° C. refrigerator, naturally thawed at room temperature, and vortexed for 5 min. 20 μL of plasma sample was pipetted to a 1.5 mL centrifuge tube, and 200 μL of internal standard working solution (a solution of tolbutamide in methanol, 100 ng/mL) was added. The resulting mixture was thoroughly mixed, vortexed for 5 min, and centrifuged at 12,000 rpm for 5 min. 50 μL of supernatant was precisely pipetted to a 96-well plate with 150 μL of water per well, and the resulting mixture was vortexed for 5 min and then used for LC-MS/MS analysis.

H1299 cell pAxl = molecular target: T1, H1299 cell pAxl (Homo sapiens, UniProt P30530); test: Inhibitory activity on cell pAxl, H1299 cells, hGAS6 stimulation, Western Blot; assay type: cell-based; conditions: hGAS6 200 ng/mL
T1 construct: endogenous in cells; host or cells: H1299
T1 sequence (P30530 26-894): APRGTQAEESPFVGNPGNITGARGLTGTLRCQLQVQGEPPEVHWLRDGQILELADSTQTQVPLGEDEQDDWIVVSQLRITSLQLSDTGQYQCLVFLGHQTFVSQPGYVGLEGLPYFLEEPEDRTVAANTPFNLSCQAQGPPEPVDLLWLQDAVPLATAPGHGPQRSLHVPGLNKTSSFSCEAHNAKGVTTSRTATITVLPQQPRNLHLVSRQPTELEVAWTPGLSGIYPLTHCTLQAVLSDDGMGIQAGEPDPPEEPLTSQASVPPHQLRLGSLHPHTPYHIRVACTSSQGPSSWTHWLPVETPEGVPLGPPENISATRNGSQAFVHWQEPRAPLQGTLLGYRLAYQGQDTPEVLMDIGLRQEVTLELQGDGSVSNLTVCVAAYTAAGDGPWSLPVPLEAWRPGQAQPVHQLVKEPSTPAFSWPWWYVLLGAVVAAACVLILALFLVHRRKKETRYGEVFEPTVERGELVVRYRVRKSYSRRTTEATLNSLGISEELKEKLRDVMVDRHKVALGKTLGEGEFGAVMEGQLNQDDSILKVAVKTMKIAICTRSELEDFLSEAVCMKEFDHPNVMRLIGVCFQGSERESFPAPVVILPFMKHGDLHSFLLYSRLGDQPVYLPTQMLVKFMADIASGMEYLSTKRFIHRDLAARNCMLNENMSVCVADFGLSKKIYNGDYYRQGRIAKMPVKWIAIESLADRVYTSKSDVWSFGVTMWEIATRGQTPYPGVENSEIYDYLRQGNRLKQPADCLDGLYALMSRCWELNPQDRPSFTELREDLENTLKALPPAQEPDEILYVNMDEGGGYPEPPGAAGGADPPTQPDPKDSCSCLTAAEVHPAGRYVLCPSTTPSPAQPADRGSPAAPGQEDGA
Protocol: H1299 is a non-small cell lung cancer cell.
H1299 cells were inoculated to a 6-well plate (containing 10% FBS 1640 medium, 5×10^5 cells per well) and adherently cultivated at 37° C., and 5% CO2 for 18 hrs. The cells were starved overnight, and then compound solutions with different concentrations were added. The compounds had final concentrations of 1.1, 3.3, 10 and 30 nM. […] There was a medium containing 1‰DMSO in the negative control well. The cells were incubated at 37° C., and 5% CO2 for 60 min, and then hGAS6 (R&D, final concentration: 200 ng/mL) was added to each well. The cells were further incubated for 60 min, and then the total protein of the cells was extracted for Western Blot experiment. IC50 values were calculated with GraphPad 5.0 software, and the inhibitory activities of the compounds on cell pAxl were detected.

[2] = IV 1 mg/kg, read-out: AUClast iv (area under plasma concentration-time curve, 0-24 h)
[3] = IV 1 mg/kg, read-out: tz1/2 iv (terminal half-life) (converted)
[4] = PO 5 mg/kg, read-out: AUClast po (area under plasma concentration-time curve, 0-24 h)
[5] = PO 5 mg/kg, read-out: tz1/2 po (terminal half-life) (converted)

Row | bioavailability ([1]; IV 1 mg/kg, PO 5 mg/kg) [%] | AUC(0-t) [1, 2] [ng·h/mL] | clearance ([1]; IV 1 mg/kg) [mL/min/kg] | Vd ([1]; IV 1 mg/kg) [L/kg] | half-life [1, 3] [h] | AUC(0-t) [1, 4] [ng·h/mL] | Tmax ([1]; PO 5 mg/kg) [h] | half-life [1, 5] [h] | pIC50 (H1299 cell pAxl) | Structure (SMILES)
1 | 31.3 | 4070 | 4 | 1.19 | 3.47 | 6620 | 4 | 3.14 |  | COc1cc2nccc(Oc3ccc(NC(=O)c4nn(CC5CCOCC5)cc(-c5ccc(C)cc5)c4=O)nc3)c2cc1OC [Compound 2, N-(5-((6,7-dimethoxyquinolin-4-yl)oxy)pyridin-2-yl)-4-oxo-1-((tetrahydro-2H-pyran-4-yl)methyl)-5-(p-tolyl)-1,4-dihydropyridazin-3-carboxamide]
2 | 46.4 | 4220 | 3.33 | 1.65 | 9.08 | 9790 | 4 | 8.12 |  | COc1cc2nccc(Oc3ccc(NC(=O)c4cc(-c5ccc(C)cc5)cn(CC5CCOCC5)c4=O)nc3)c2cc1OC [Compound 13, N-(5-((6,7-dimethoxyquinolin-4-yl)oxy)pyridin 2yl)-2-oxo-1-((tetrahydro-2H-pyran-4-yl)methyl)-5-(p-tolyl)-1,2-dihydropyridin-3-carboxamide]
3 | 70.7 | 4860 | 3.5 | 1.18 | 3.98 | 17200 | 6 | 3.5 |  | COc1cc2nccc(Oc3ccc(NC(=O)c4nn(C5CCOCC5)cc(-c5ccc(C)cc5)c4=O)nc3)c2cc1OC [Compound 17, N-(5-((6,7-dimethoxyquinolin-4-yl)oxy)pyridin-2-yl)-4-oxo-1-(tetrahydro-2H-pyran-4-yl)-5-(p-tolyl)-1,4-dihydropyridazin-3-carboxamide]
4 | 34.6 | 1500 | 11 | 0.92 | 0.96 | 2600 | 0.5 | 1.17 |  | COc1cc2nccc(Oc3cnc(NC(=O)c4nn(C5CCOCC5)cc(-c5ccc(C)cc5)c4=O)nc3)c2cc1OC [Compound 18, N-(5-((6,7-dimethoxyquinolin-4-yl)oxy)pyrimidin-2-yl)-4-oxo-1-(tetrahydro-2H-pyran-4-yl)-5-(p-tolyl)-1,4-dihydropyridazin-3-carboxamide]
5 | 40.5 | 2440 | 6.17 | 1.3 | 2.44 | 5450 | 1 | 2.56 |  | COc1cc2nccc(Oc3ccc(NC(=O)c4cn(C5CCOCC5)cc(-c5ccc(C)cc5)c4=O)nc3)c2cc1OC [Compound 19, N-(5-((6,7-dimethoxyquinolin-4-yl)oxy)pyridin-2-yl)-4-oxo-1-(tetrahydro-2H-pyran-4-yl)-5-(p-tolyl)-1,4-dihydropyridin-3-carboxamide]
6 |  |  |  |  |  |  |  |  | > 8.96 | COc1cc2nccc(Oc3ccc(NC(=O)c4cn(C5CCOCC5)cc(-c5ccc(F)cc5)c4=O)nc3)c2cc1OC [Compound 27, N-(5-((6,7-dimethoxyquinolin-4-yl)oxy)pyridin-2-yl)-5-(4-fluorophenyl)-4-oxo-1-(tetrahydro-2H-pyran-4-yl)-1,4-dihydropyridin-3-carboxamide]
7 |  |  |  |  |  |  |  |  | 8.96 | COc1cc2nccc(Oc3ccc(NC(=O)c4nn(C5CCOCC5)cc(-c5ccc(C)cc5)c4=O)cc3F)c2cc1OC [Compound 28]
8 |  |  |  |  |  |  |  |  | 7.52 | Cc1ccc(-c2cn(C3CCOCC3)nc(C(=O)Nc3ccc(Oc4ccnc5cc6c(cc45)OCO6)cn3)c2=O)cc1 [Compound 29, N-(5-([1,3]dioxolo[4,5-g]quinolin-8-yloxy)pyridin-2-yl)-4-oxo-1-(tetrahydro-2H-pyran-4-yl)-5-(p-tolyl)-1,4-dihydropyridazin-3-carboxamide]
9 |  |  |  |  |  |  |  |  | < 8.00 | Cc1ccc(-c2cn(C3CCOCC3)nc(C(=O)Nc3ccc(Oc4ccnc5cc6c(cc45)OCCO6)cn3)c2=O)cc1 [Compound 30, N-(5-((2,3-dihydro-[1,4]dioxino[2,3-g]quinolin-9-yl)oxy)pyridin-2-yl)-4-oxo-1-(tetrahydro-2H-pyran-4-yl)-5-(p-tolyl)-1,4-dihydropyridazin-3-carboxamide]
10 |  |  |  |  |  |  |  |  | > 8.48 | COc1cc2nccc(Oc3cnc(NC(=O)c4cn(C5CCOCC5)cc(-c5ccc(F)cc5)c4=O)nc3)c2cc1OC [Compound 31, N-(5-((6,7-dimethoxyquinolin-4-yl)oxy)pyrimidin-2-yl)-5-(4-fluorophenyl)-4-oxo-1-(tetrahydro-2H-pyran-4-yl)-1,4-dihydropyridin-3-carboxamide]
11 |  |  |  |  |  |  |  |  | > 8.96 | COc1cc2nccc(Oc3ccc(NC(=O)c4cc(CC5CCOCC5)cn(-c5ccc(F)cc5)c4=O)nc3)c2cc1OC [Compound 32, N-(5-((6,7-dimethoxyquinolin-4-yl)oxy)pyridin-2-yl)-1-(4-fluorophenyl)-2-oxo-5-((tetrahydro-2H-pyran-4-yl)methy 1)-1,2-dihydropyridin-3-carboxamide]
12 |  |  |  |  |  |  |  |  | 8.48 | COc1cc2nccc(Oc3cnc(NC(=O)c4nn(C5CCOCC5)cc(-c5ccc(F)cc5)c4=O)nc3)c2cc1OC [Compound 33, N-(5-((6,7-dimethoxyquinolin-4-yl)oxy)pyrimidin-2-yl)-5-(4-fluorophenyl)-4-oxo-1-(tetrahydro-2H-pyran-4-yl)-1,4-dihydropyridazin-3-carboxamide]
13 | 65.7 | 8440 | 1.83 | 0.84 | 5.18 | 28000 | 6 | 4.56 | > 8.96 | COc1cc2nccc(Oc3ccc(NC(=O)c4nn(C5CCOCC5)cc(-c5ccc(F)cc5)c4=O)nc3)c2cc1OC [Compound 34, N-(5-((6,7-dimethoxyquinolin-4-yl)oxy)pyridin-2-yl)-5-(4-fluorophenyl)-4-oxo-1-(tetrahydro-2H-pyran-4-yl)-1,4-dihydropyridazin-3-carboxamide]
